Laboratory results reported in publication PMC6567057, “Pharmacokinetic, metabolic stability, plasma protein binding and CYP450s inhibition/induction assessment studies of N-(2-pyridylmethyl)-2-hydroxiymethyl-1-pyrrolidinyl-4-(3-chloro-4-methoxy-benzylamino)-5-pyrimidine-carboxamide as potential type 5 phosphodiesterase inhibitors” (Animal Cells and Systems, 2019).
Like-named read-outs stand apart in the source and are kept apart here.

Key:
[1] = In vitro metabolic stability in human liver microsomes; assay type: in vitro ADME; conditions: for remaining at 1 h, 1 µM: liver microsomes, pH 7.4, human liver microsomes, 60 min, read-out: percent remaining
Method: The phosphate buffer (pH 7.4, 100 mM) and (300 mM) were prepared in deionized water. NADP and IA were dissolved in phosphate buffer and MgCl2 solution and then added 20 μL IDH (18 units/mg protein) and mixed. NHPPC (1 mM) and positive control drug were prepared by dilution using DMSO and then the NHPPC and positive control drug working solution (50 μM) were obtained by dilution using methanol: H2O (1:1, v/v) mixture. Pooled human, rat and dog liver microsomes were added to phosphate buffer pH7.4 to a concentration 20 mg/mL. NHPPC was incubated with liver microsomes. The incubation solution of the final reaction conditions contained 50 mM potassium phosphate buffer (pH 7.4), 0.5 mg protein/mL microsomes, 3 mM MgCl2, 2 mM NADPH and 1 μM NHPPC or positive control drug in a final volume of 100 μL. In sample and positive control groups, NADPH was added into the incubation solutions. In the negative control group, water (the replacement of NADPH) was added into the incubation solutions. Samples were incubated aerobically in a shaking water bath at 37°C and the reaction was terminated by adding 300 μL of ice cold acetonitrile (contain 100 ng/mL IS) at different interval 0, 5, 10, 20, 30 and 60 min. While positive control and negative control were incubated aerobically in a shaking water bath at 37°C for 0 and 60 min, respectively. NHPPC and control concentrations were determined by LC-MS/MS at each time point (n = 3). Calculation of t1/2 and CLint was performed by using following equations, where K is the elimination rate constant (min^−1) and QH is hepatic blood flow (mL/min/kg). t1/2=0.693/KCLint,in vitro=VD×KVD=Volume of reaction mixture(mL)/mg of protein per reation.
Hepatic intrinsic clearance was estimated by using the scaling factors and calculated by using the following equation (Lave et al. [1997]). CLint,in vivo=CLint×mg microsomal protein per liver×g liver per kg body weight, Cint,H=CLint,in vivo×QH/CLint,in vivo+QH,EH=CLint,H/QH.

CYP1A2 = biological target: T1, CYP1A2 (Homo sapiens, UniProt P05177); assay: CYP isozyme inhibition in human liver microsomes; assay type: in vitro ADME; conditions: calculated from inhibition at 3 μM
T1 construct: tissue BD Gentest; host or cells: pooled human liver microsomes
T1 sequence (P05177 1-516): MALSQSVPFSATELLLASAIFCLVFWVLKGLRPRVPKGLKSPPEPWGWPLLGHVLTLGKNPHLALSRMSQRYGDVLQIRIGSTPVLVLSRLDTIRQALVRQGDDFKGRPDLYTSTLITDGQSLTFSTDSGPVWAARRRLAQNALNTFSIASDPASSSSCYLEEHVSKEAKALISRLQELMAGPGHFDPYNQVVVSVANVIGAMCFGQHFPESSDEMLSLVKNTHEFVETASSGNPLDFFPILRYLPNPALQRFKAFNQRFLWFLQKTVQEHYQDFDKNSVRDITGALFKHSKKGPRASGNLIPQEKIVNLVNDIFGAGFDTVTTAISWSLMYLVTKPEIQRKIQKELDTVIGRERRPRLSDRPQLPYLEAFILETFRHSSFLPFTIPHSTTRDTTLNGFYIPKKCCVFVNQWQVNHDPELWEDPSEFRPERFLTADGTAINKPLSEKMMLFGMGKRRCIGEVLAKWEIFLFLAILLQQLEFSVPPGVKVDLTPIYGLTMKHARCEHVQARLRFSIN
Method: (§1) The stock solutions of the probe substrates phenacetin (20.0 mM), diclofenac (20.0 mM), S-mephenytoin (30 mM), dextromethorphan (10.0 mM), midazolam (10.00 mM) and testosterone (50.0 mM) were prepared using methanol, while α-Naphtoflavone (3.0 mM), sulfaphenazole (3.0 mM), N-3-benzylnirvanol (3.0 mM), quinidine (3.0 mM), ketoconazole (3.0 mM) and NHPPC (10.0 mM) were prepared using DMSO, and diluted with phosphate buffer (PB, 100 mM, pH 7.4) before added into the incubation system. The organic solvents in the final incubate were no more than 0.20%. The incubation medium was 100 mM phosphate buffered saline, and the final incubation volume was 200 μL containing 25 pmol/mL human liver microsomes CYP enzyme, probe substrate, 1 mM NADPH and NHPPC at 3.00 μM. The reactions were initiated after 5 min pre-incubation at 37°C and were terminated by the addition of 400 μL ice-cold acetonitrile. All incubations were conducted in triplicate, and the samples were stored at −80°C until analysis. Calculation of IC50 was performed by using following equations, where C is concentration of test compounds.

CYP2C19 = biological target: T2, CYP2C19 (Homo sapiens, UniProt P33261); assay: CYP isozyme inhibition in human liver microsomes; assay type: in vitro ADME; conditions: calculated from inhibition at 3 μM
T2 construct: tissue BD Gentest; host or cells: pooled human liver microsomes
T2 sequence (P33261 whole entry): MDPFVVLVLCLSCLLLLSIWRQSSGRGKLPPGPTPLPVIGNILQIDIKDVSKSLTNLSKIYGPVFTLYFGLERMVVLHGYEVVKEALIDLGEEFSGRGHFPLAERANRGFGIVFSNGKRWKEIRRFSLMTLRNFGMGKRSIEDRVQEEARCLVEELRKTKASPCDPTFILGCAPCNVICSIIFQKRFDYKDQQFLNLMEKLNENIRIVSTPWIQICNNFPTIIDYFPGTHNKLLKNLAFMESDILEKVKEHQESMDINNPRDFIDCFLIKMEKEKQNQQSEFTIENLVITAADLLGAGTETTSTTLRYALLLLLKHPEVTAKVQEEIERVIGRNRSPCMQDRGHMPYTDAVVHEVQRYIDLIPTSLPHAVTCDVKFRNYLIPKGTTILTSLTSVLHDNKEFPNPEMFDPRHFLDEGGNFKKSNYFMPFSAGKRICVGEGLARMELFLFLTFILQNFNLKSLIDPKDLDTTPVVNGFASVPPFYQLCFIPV
Method: as §1

CYP2C9 = biological target: T3, CYP2C9 (Homo sapiens, UniProt P11712); assay: CYP isozyme inhibition in human liver microsomes; assay type: in vitro ADME; conditions: calculated from inhibition at 3 μM
T3 construct: tissue BD Gentest; host or cells: pooled human liver microsomes
T3 sequence (P11712 whole entry): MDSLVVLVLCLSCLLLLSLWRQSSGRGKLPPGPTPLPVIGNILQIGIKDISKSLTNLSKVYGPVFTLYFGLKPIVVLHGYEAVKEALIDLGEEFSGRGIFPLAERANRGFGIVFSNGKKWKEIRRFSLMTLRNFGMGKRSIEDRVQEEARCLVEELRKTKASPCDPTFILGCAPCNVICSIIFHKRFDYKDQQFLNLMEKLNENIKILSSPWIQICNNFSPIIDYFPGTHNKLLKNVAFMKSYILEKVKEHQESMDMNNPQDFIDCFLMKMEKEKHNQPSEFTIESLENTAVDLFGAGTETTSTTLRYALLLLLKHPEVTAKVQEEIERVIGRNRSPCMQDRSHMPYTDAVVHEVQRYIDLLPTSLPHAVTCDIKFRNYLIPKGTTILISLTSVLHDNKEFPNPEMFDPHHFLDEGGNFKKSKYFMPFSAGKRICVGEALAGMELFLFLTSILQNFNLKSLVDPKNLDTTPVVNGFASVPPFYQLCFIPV
Method: as §1

CYP2D6 = biological target: T4, CYP2D6 (Homo sapiens, UniProt P10635); assay: CYP isozyme inhibition in human liver microsomes; assay type: in vitro ADME; conditions: calculated from inhibition at 3 μM
T4 construct: tissue BD Gentest; host or cells: pooled human liver microsomes
T4 sequence (P10635 whole entry): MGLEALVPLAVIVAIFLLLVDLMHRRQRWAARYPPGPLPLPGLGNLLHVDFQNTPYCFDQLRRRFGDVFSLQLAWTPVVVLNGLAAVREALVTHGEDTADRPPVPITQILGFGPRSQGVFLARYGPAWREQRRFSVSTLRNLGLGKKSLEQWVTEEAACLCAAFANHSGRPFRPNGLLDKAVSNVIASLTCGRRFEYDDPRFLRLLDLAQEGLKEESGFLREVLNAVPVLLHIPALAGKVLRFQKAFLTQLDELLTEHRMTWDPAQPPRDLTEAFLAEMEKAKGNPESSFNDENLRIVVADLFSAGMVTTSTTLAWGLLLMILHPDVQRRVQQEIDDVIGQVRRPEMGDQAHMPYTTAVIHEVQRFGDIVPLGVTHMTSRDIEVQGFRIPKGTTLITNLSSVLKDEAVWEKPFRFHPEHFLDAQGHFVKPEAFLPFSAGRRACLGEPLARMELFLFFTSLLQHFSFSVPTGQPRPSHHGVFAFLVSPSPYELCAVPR
Method: as §1

CYP3A4 = biological target: T5, CYP3A4 (Homo sapiens, UniProt P08684); assay: CYP isozyme inhibition in human liver microsomes; assay type: in vitro ADME; conditions: calculated from inhibition at 3 μM
T5 construct: tissue BD Gentest; host or cells: pooled human liver microsomes
T5 sequence (P08684 whole entry): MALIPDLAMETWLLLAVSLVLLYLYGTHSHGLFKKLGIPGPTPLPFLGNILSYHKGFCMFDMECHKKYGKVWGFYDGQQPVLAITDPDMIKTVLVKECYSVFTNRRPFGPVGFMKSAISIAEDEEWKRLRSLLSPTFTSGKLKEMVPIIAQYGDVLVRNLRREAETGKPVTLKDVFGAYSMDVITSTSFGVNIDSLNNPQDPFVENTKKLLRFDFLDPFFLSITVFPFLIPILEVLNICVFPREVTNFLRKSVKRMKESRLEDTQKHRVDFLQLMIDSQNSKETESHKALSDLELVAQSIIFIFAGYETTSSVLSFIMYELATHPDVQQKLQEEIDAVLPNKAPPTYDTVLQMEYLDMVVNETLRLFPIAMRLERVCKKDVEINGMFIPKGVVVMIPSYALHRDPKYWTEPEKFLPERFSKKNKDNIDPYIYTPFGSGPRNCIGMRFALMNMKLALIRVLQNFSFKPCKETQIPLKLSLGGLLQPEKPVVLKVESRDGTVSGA
Method: as §1

[2] = In vivo pharmacokinetic study in dogs; design: species or system male Beagle dogs; conditions: dog; for MRT inf: read-out: MRT0-∞
[3] = male, Beagle, plasma, IV 1 mg/kg
[4] = male, Beagle, plasma, PO 1 mg/kg

SMILES: COc1ccc(CNc2nc(N3CCC[C@H]3CO)ncc2C(=O)NCc2ccccn2)cc1Cl [NHPPC, N-(2-pyridylmethyl)-2-hydroxiymethyl-1-pyrrolidinyl-4-(3-chloro-4-methoxy-benzylamino)-5-pyrimidine-carboxamide]
- remaining at 1 h, 1 µM ([1]; human, in the presence of NADPH, 1 μM): 42%
- remaining at 1 h, 1 µM ([1]; human, without NADPH regenerating system): 99.4%
- ranking for clearance ([1]; human, ranking criteria of Houston 1994, Kerns and Di 2008): middle clearance
- CLH ([1]; human, scaled from liver microsomes): 9.80 mL/min/kg
- half-life at 1 µM ([1]; liver microsomes (pooled), pH 7.4, human liver microsomes): 0.77 h
- microsomal CLint at 1 µM ([1]; liver microsomes (pooled), pH 7.4, human liver microsomes, read-out: CLint, ivtro): 21.4 µL/min/mg
- k el at 1 µM ([1]; liver microsomes (pooled), pH 7.4, human liver microsomes, read-out: Ke (converted)): 0.00025 s⁻¹
- IC50 (CYP1A2): > 100 µM
- IC50 (CYP2C19): > 100 µM
- IC50 (CYP2C9): 21.9 µM
- IC50 (CYP2D6): > 100 µM
- IC50 (CYP3A4; CYP3A4 (midazolam based)): > 100 µM
- IC50 (CYP3A4; CYP3A4 (testosterone based)): > 100 µM
- K10 ([2]; IV 1 mg/kg): 0.52 ± 0.03 h⁻¹
- K10 ([2]; PO 1 mg/kg): 0.45 ± 0.06 h⁻¹
- BA ([2]; PO 1 mg/kg vs IV 1 mg/kg, 1 mg/kg): 53.1 ± 14.2%
- AUC(0-inf) [2, 3]: 685 ± 40 ng·h/mL
- AUC(0-t) [2, 3]: 679 ± 38.5 ng·h/mL
- clearance [2, 3]: 24.3 mL/min/kg
- half-life [2, 3]: 1.33 ± 0.06 h
- MRT inf [2, 3]: 1.15 ± 0.04 h
- Vd ([2]; male, Beagle, plasma, IV 1 mg/kg, read-out: Vss): 1.68 ± 0.08 L/kg
- AUC(0-inf) [2, 4]: 364 ± 97.4 ng·h/mL
- AUC(0-t) [2, 4]: 351 ± 96.1 ng·h/mL
- Cmax [2, 4]: 144 ± 35.3 ng/mL
- Tmax [2, 4]: 0.5 h
- half-life [2, 4]: 1.57 ± 0.22 h
- MRT inf [2, 4]: 2.54 ± 0.15 h
- Tmax ([2]; male, beagle, plasma, PO 1 mg/kg): 0.5 to 1 h
